Results as given in patent publication US9012446B2, “Amino-oxazines and amino-dihydrothiazine compounds as beta-secretase modulators and methods of use” (Amgen Inc., priority 2010, dated 2015).
Where two headings read alike, the source gives them in different places.

Experiments:
Aβ40 = assay: In vitro BACE cell-based assay (Aβ40 sandwich ELISA, cells stably expressing APP); settings: Homo sapiens, HEK293, average IC50; read-out: HEK cell assay
Procedure, shortened: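 APP-stably-expressing cells, grown 24 h in DMEM/10% FBS, received 10-point compound doses starting at 100 μM or 10 μM (0.1% DMSO final). Secreted Aβ40 in supernatants measured by sandwich ELISA with time-resolved europium fluorescence; IC50 from percent inhibition versus concentration.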

BACE = BACE (Homo sapiens, UniProt P56817); assay: In vitro enzymatic BACE FRET assay; format: biochemical; settings: average IC50, enzyme assay; read-out: BACE 1 FRET assay
Procedure, shortened: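 BACE (0.2 nM) preincubated 1 h with serially diluted inhibitors in 0.05 M acetate pH 4.2, 10% DMSO, 100 uM genapol. FRET peptide substrate (50 nM) added, 1 h incubation, then stopped with Tris to neutral pH. Fluorescence from cleavage read at […].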

Abeta 40 = assay: In vivo inhibition of beta-secretase: Abeta 40 reduction in CSF and brain of the rat; settings: after 4 hrs; for inhibition in vivo at 10 mg/kg: 10 mpk; for % reduction of rat CSF levels / % reduction of rat brain levels: at 30 mpk
Procedure, shortened: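 Male Sprague Dawley rats (200 g) were given test compound by oral gavage in 2% HPMC, 1% Tween80, pH 2.2, while a vehicle-only group served as control. After sacrifice, brains were homogenized in 0.2% DEA/50 mM NaCl or 0.5% TritonX-100 in Tris-buffered saline and centrifuged at 355,000 g, 4° C. for 30 minutes. Abeta40 in CSF and brain supernatants was quantified by ECL sandwich ELISA (biotinylated-4G8 capture, Fab40 detection) as percent reduction versus vehicle.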

[1] = Abeta 40, rat CSF, read-out: % reduction of rat CSF levels at 10 pmk
[2] = Abeta 40, rat brain, read-out: % reduction of rat brain levels at 10 mpk

BACE, sequence (P56817 46-501, species assumed): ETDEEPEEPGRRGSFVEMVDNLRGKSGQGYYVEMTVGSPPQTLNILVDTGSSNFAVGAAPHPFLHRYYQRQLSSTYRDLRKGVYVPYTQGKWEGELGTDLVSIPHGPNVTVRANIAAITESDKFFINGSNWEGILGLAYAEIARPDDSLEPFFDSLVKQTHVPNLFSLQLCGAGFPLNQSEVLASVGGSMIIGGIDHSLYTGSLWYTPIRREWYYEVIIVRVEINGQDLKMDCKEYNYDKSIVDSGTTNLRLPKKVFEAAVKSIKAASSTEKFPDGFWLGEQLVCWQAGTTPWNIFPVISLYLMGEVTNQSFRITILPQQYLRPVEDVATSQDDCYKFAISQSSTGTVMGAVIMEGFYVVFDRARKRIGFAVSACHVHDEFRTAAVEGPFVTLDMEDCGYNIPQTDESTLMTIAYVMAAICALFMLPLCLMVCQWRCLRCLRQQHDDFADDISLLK

Structure (SMILES)	IC50 (Aβ40) [nM]	IC50 (BACE) [nM]	inhibition in vivo at 10 mg/kg (Abeta 40; [1]) [%]	inhibition in vivo at 10 mg/kg (Abeta 40; [2]) [%]	% reduction of rat CSF levels (Abeta 40; Abeta 40, rat CSF) [% at 30 mpk]	% reduction of rat brain levels (Abeta 40; Abeta 40, rat brain) [% at 30 mpk]
CC(C)(F)COc1cc(F)c2c(c1)[C@]1(CCOC(N)=N1)c1cc(-c3cccnc3F)ccc1O2 [Example 182, (S)-4′-fluoro-2′-(2-fluoro-2-methylpropoxy)-7′-(2-fluoropyridin-3-yl)-5,6-dihydrospiro[[1,3]oxazine-4,9′-xanthen]-2-amine]	4.1	2.5	59	30		
NC1=N[C@@]2(CCO1)c1cc(-c3cccnc3F)ccc1Oc1c(F)cc(N3CCOCC3)cc12 [Example 184, (S)-4′-fluoro-7′-(2-fluoropyridin-3-yl)-2′-morpholino-5,6-dihydrospiro[[1,3]oxazine-4,9′-xanthen]-2-amine]	6.9	4.8	19	12		
NC1=N[C@@]2(CCO1)c1cc(-c3cccnc3F)ccc1Oc1c(F)cc(N3CCC(F)(F)CC3)cc12 [Example 185, (4S)-2′-(4,4-difluoro-1-piperidinyl)-4′-fluoro-7′-(2-fluoro-3-pyridinyl)-5,6-dihydrospiro[1,3-oxazine-4,9′-xanthen]-2-amine]	9.6	4.4			53	26
NC1=N[C@@]2(CCS1)c1cc(-c3cccnc3F)ccc1Oc1c(F)cc(C3=CCCOC3)cc12 [Example 201, (S)-2′-(5,6-dihydro-2H-pyran-3-yl)-4′-fluoro-7′-(2-fluoropyridin-3-yl)-5,6-dihydrospiro[[1,3]thiazine-4,9′-xanthen]-2-amine]	9.7	1.4			80	65
NC1=N[C@@]2(COC1)c1cc(-c3cc(F)ccc3F)ccc1Oc1ncc(-c3ccnc(F)c3)cc12 [Example 220, (S)-7-(2,5-difluorophenyl)-3-(2-fluoropyridin-4-yl)-2′,6′-dihydrospiro[chromeno[2,3-b]pyridine-5,3′-[1,4]oxazin]-5′-amine]	4.4	2	38	2		
NC1=N[C@@]2(CCO1)c1cc(-c3cncc(F)c3)ccc1Oc1c2cc(-c2ccnc(F)c2)nc1F [Example 226, (S)-1-fluoro-7-(5-fluoropyridin-3-yl)-3-(2-fluoropyridin-4-yl)-5′,6′-dihydrospiro[chromeno[2,3-c]pyridine-5,4′-[1,3]oxazin]-2′-amine]	1.6	1.4	83	74		
NC1=N[C@@]2(CCO1)c1cc(-c3cccnc3)ccc1Oc1c2cc(-c2ccnc(F)c2)nc1F [Example 239, (S)-1-fluoro-3-(2-fluoropyridin-4-yl)-7-(pyridin-3-yl)-5′,6′-dihydrospiro[chromeno[2,3-c]pyridine-5,4′-[1,3]oxazin]-2′-amine]	16.1	35	68	48		
Cc1cc(-c2cc3c(c(F)n2)Oc2ccc(-c4cccnc4F)cc2[C@@]32COCC(N)=N2)ccn1 [Example 248, (S)-1-fluoro-7-(2-fluoropyridin-3-yl)-3-(2-methylpyridin-4-yl)-2′,6′-dihydrospiro[chromeno[2,3-c]pyridine-5,3′-[1,4]oxazin]-5′-amine]	0.7	0.6	53	39		
NC1=N[C@@]2(COC1)c1cc(-c3cccnc3F)ccc1Oc1c2cc(C2=CCCOC2)nc1F [Example 249, (S)-3-(5,6-dihydro-2H-pyran-3-yl)-1-fluoro-7-(2-fluoropyridin-3-yl)-2′,6′-dihydrospiro[chromeno[2,3-c]pyridine-5,3′-[1,4]oxazin]-5′-amine]	0.4	0.4	72	59		
CC(C)(C)COc1cc2c(c(F)n1)Oc1ccc(-c3cccnc3F)cc1[C@@]21COCC(N)=N1 [Example 250, (5S)-3-(2,2-dimethylpropoxy)-1-fluoro-7-(2-fluoro-3-pyridinyl)-6′H-Spiro[chromeno[2,3-c]pyridine-5,3′-[1,4]oxazin]-5′-amine]	2.8	0.6	72	72		
CC(C)(C)C#Cc1cnc2c(c1)[C@]1(CCOC(N)=N1)c1cc(-c3cccnc3F)ccc1O2 [Example 270, (S)-3-(3,3-dimethylbut-1-ynyl)-7-(2-fluoropyridin-3-yl)-5′,6′-dihydrospiro[chromeno[2,3-b]pyridine-5,4′-[1,3]oxazin]-2′-amine]	4.9	3.1	70	52		
